# From patent EP4733301A1 (priority 2023, dated 2025)
# Columns and labels:
# [1] = X-ray-induced release of coumarin reporter 7-Deacca from Compounds 1-9 in phosphate buffer (UPLC-MS); type: physicochemical; conditions: for release efficiency in KNO3 solution relative to control: 10 mM KNO3 added; for reactivity to radiation reduction: ortho-/para-substituted esters versus meta-substituted ones (Compounds 2, 5, 8); for release efficiency (in words): NAP esters
# Method: (§1) Pretreated solution (approx. 1-2 mL) was sealed in glass vials with rubber stoppers and metal caps. All tubular radiation experiments were pretreated using the freeze-thaw method to remove dissolved oxygen from the solution. The solution was frozen, then vacuum was applied for several minutes until thawed to room temperature.
# X-ray irradiation was performed using an X-ray generator (RS2000 Pro 225, 225 kV, 17.7 mA; Rad Source Technologies, Inc).
# (§2) Tubes were irradiated with X-rays, with a total dose of 0-60 Gy, at a rate of 2 Gy/min. Cells were irradiated with X-rays at different doses at a rate of 2 Gy/min.
# • 1. Standard preparation and calibration curves. The standard (coumarin, MeRho or MMAE) was dissolved in DMSO solution to make a 10 mM stock solution. The stock was diluted with deionized water to obtain solutions of suitable concentration gradients. These standard solutions were analyzed by UPLC-MS to generate calibration curves for the respective standard compounds. The peak areas of the target compounds were within the linear range of the curves. The relative standard deviation for duplicate injections of each standard solution was less than 5.0%. • 2. Analysis and calculation. After different treatments, the reaction mixtures were analyzed by ultra-performance liquid chromatography-mass spectrometry. The amount of cargo was calculated as equivalents of their respective external standard.
# (§3) As a representative example, the detailed procedure for X-ray-induced reduction of Compound 1 is described below. A stock solution of Compound 1 (10 mM in DMSO) was diluted in PB (0.02 M, pH 7.4) to a final concentration of 10 µM. Solutions were deoxygenated using the aforementioned deoxygenation step prior to X-ray irradiation from 0 to 60 Gy. Reaction mixtures were analyzed using UPLC and a fluorescence spectrometer, and amount of product release was quantified via standard curves.
# (§4) The elution program for Compounds 1-9 and NAPC-MeRho was Method a: H2O + 5% ACN (0 min)-95% H2O + 5% ACN (0.2 min)-5% H2O + 95% ACN (2.8 min)-5% H2O + 95% ACN (2.9 min)-95% H2O + 5% ACN (3.0 min)-95% H2O + 5% ACN (4.0 min). Injection volume: 10 µL.
# 10 mM KNO3 was added to the radiation system of Compound 1 (10 µM, in PB, pH 7.4) Reactivity test (10 µM, 0.1% DMSO): Determination of 7-Deacca release in PB (20 mM, pH 7.4) after deoxygenation and 60 Gy X-ray irradiation. Encouragingly, UPLC-MS detected coumarin release (FIG. 32), with a release efficiency of 33.5 ± 9.1% (FIG. 4), resulting in 55.8 nM/Gy.
# 7-Deacca was designed to be protected by a series of molecules Compounds 2-9 with pyridyl, quinolinyl, and N-methylpyridyl groups. Stock solutions of Compounds 2-9 (10 mM in DMSO) were diluted in PB (10 µM, 0.1% DMSO), then irradiated with 60 Gy X-rays, and analyzed by UPLC-MS to determine the yield of free 7-Deacca (FIG. 35).
# 10 mM HCOONa or KNO3 was added to the radiation system of Compound 7 (10 µM, in PB, pH 7.4). […] It can be explained that radicalized HCOONa in water reacts with ·OH and hydrogen radicals (·H) to generate carboxylate radicals […], which is another reducing agent with a standard electrode potential of -1.90 V, which may also be a possible explanation for the difference in its radiation reduction efficiency. Compared to the quinolinyl moiety with higher electron density (lower reduction potential), the positive charge on the pyridyl moiety with lower electron density (higher reduction potential) has higher affinity for the negatively charged e^-aq, resulting in the highest radiation reduction efficiency among them for the pyridyl moiety.
# [2] = X-ray-induced AMC release from Compound 10 in PB (UPLC); type: physicochemical; conditions: 10 µM, 0.02 M PB pH 7.4, 0-60 Gy
# Method: as §1, §2, §3
# (§5) Method B was used for elution of Compound 10, mixtures of Compound 7 with other RPGs, and mixtures of Compound 10 with other rpg: 95% H2O + 5% ACN (0 min)-95% H2O + 5% ACN (0.2 min)-70% H2O + 30% ACN (3.0 min)-70% H2O + 30% ACN (3.6 min)-95% H2O + 5% ACN (3.7 min)-95% H2O + 5% ACN (5.0 min). Injection volume: 10 µL.
# The inventors synthesized Compound 10 (NAPC-AMC) containing NAP-protected 7-amino-4-methylcoumarin (AMC). […]
# [3] = Competition reaction of Compound 10 with prior-art RPGs (Compounds 11, 12, 13) under 60 Gy X-ray; type: physicochemical; conditions: each component 10 µM in PB pH 7.4, deoxygenated, versus Compounds 11, 12, 13
# Method: as §5
# The inventors mixed the reported RPGs with Compound 10, providing solutions of [10+11], [10+12], [10+13], respectively (each component: 10 µM in PB, pH 7.4). The solutions were deoxygenated and irradiated with 60 Gy X-rays, and their release efficiencies were analyzed by UPLC-MS (FIG. 11) and summarized in FIG. 12. The lower part of the bars and the upper part of the bars represent the activation ratio of Compound 10 and each competing component in the irradiation system, respectively.
# [4] = test system: HT1080-FAP cells; experiment: Confocal fluorescence imaging of radiation-induced MeRho release in cells; type: cell-based, Human; conditions: 10 µM, hypoxic conditions, 30 minutes, no radiation
# Method: (§6) Typically, cells were seeded at a density of 2×10^5 cells/mL in 35-mm confocal dishes and cultured under hypoxic conditions in an incubator containing 5% CO2 at 37 °C for 24 hours. A stock solution of NAPC-MeRho (10 mM) was prepared in DMSO. Attached cells were washed twice with PBS before adding the fluorescence probe at a final concentration of 10 µM in 1 mL deoxygenated HBSS. After hypoxic incubation at 37 °C for 30 min, they were subjected to X-ray irradiation for […] (0, 4, 8, 16 Gy), and fluorescence images were taken with a laser scanning confocal microscope (Nikon, Japan). Excitation wavelength was 488 nm, fluorescence emission window was 500-530 nm. For imaging quantification, all cells on the image were set as regions of interest, and fluorescence intensity was measured using Nikon imaging software (version 4.0).
# (§7) Subsequent irradiation with 4, 8, and 16 Gy presented the appearance of green fluorescence from MeRho release (FIG. 16, right lanes), with fluorescence intensity positively correlated with radiation dose (FIG. 17).
# [5] = test system: 4T1-FAP, HT1080-FAP and U87-MG cells; type: cell-based; conditions: 10 µM NAPC-MeRho, different cell lines
# Method: (§8) The inventors performed proof-of-concept for a radiation-responsive fluorescent probe NAPC-MeRho (FIG. 13), designed for quantitative analysis of radiation-induced release. The NAPC linker selectively responds to e^-aq generated by X-rays, where C-O bond cleavage of the carbamate occurs, followed by decarboxylation to release fluorescent MeRho (FIG. 13). Under physiological conditions, irradiating 10 µM NAPC-MeRho with a gradient dose from 0 to 60 Gy caused fluorescence intensity to increase in a linear manner (FIG. 14 and FIG. 15), and UPLC spectra determined a G-value for MeRho release of 140 nM/Gy (FIG. 15). To test whether the radiation reduction reaction can occur in living cells without interference, stability to biological reducing agents and cytotoxicity to different cell lines were evaluated. […] VcNa at pH 7.4, and cell viability with 10 µM NAPC-MeRho was greater than 95%.
# Cell viability was assessed using CCK-8 assay. Each experiment was performed in triplicate. […] Incubated at 37 °C, 5% CO2 for 2 hours, absorbance was measured at 450 nm. The absorbance of treated cells was compared to that of the control group, whose viability was set at 100%.
# [6] = test system: 4T1-FAP cells; experiment: Confocal fluorescence imaging of radiation-induced MeRho release in cells; type: cell-based, Mouse; conditions: 10 µM
# Method: as §6, §7
# [7] = test system: 4T1-FAP tumors; experiment: Radiation activation of NAPC-MeRho in tumors, fluorescence of tumor sections; type: in vivo, BALB/c mice; conditions: 20 µL of 100 µM locally injected
# Method: Then, when examining the reduction of NAPC-MeRho in tumor-bearing mice, 20 µL of 100 µM NAPC-MeRho in PBS was locally injected into 4T1-FAP tumors, and X-ray therapy of 4 Gy was administered 30 minutes post-injection. Due to limited green light penetration, tumors were harvested and quickly frozen, and fluorescence intensity was quantified via confocal imaging. […] Furthermore, the MeRho signal was statistically greater than the non-irradiated group (FIG. 19), providing conclusive evidence that radiation reduction reactions are feasible in vivo.
# [8] = type: physicochemical
# Method: 20 µM NAPC-MeRho was mixed with an equal volume of 2 mM sodium ascorbate solution, incubated and detected at different time points using a fluorescence spectrometer and UPLC-MS. Stability test results in cysteine and γ-glutathione solutions were the same.
# as §8
# [9] = test system: U87MG cells; experiment: Confocal fluorescence imaging of radiation-induced MeRho release in cells; type: cell-based; conditions: 10 µM, hypoxic conditions, 30 minutes, no radiation
# Method: as §6, §7
# [10] = X-ray-induced MeRho release from NAPC-MeRho in PB (fluorescence, UPLC); type: physicochemical; conditions: 10 µM, gradient dose 0 to 60 Gy
# Method: as §3, §4
# The inventors performed proof-of-concept for a radiation-responsive fluorescent probe NAPC-MeRho (FIG. 13), designed for quantitative analysis of radiation-induced release. […] Under physiological conditions, irradiating 10 µM NAPC-MeRho with a gradient dose from 0 to 60 Gy caused fluorescence intensity to increase in a linear manner (FIG. 14 and FIG. 15), and UPLC spectra determined a G-value for MeRho release of 140 nM/Gy (FIG. 15). To test whether the radiation reduction reaction can occur in living cells without interference, stability to biological reducing agents and cytotoxicity to different cell lines were evaluated. […]
# [11] = 10 µM, 20 Gy irradiation (control conditions)
smiles,measurement,setting,value
"CCN(CC)c1ccc2cc(C(=O)OCc3ccncc3)c(=O)oc2c1 [Compound 1, Pyridin-4-ylmethyl-7-(diethylamino)-2-oxo-2H-chromene-3-carboxylate]",release efficiency (coumarin / 7-Deacca release),"[1]; 10 µM, 0.1% DMSO, PB 20 mM pH 7.4, deoxygenated, 60 Gy X-ray",33.5 ± 9.1%
same,coumarin release efficiency,"[1]; 10 µM, 20 Gy + 10 mM HCO2Na",27.3%
same,coumarin release efficiency,"[1]; 10 µM, 20 Gy + 10 mM KNO3",1.3%
same,coumarin release efficiency,[1]; [11],16.7%
same,release efficiency in KNO3 solution relative to control,[1]; 10 µM in PB pH 7.4,significantly reduced
same,release per radiation dose,"[1]; from release efficiency at 60 Gy, 10 µM in PB pH 7.4",55.8 nM/Gy
same,reactivity to radiation reduction,[1]; 60 Gy X-ray,more reactive
"CCN(CC)c1ccc2cc(C(=O)OCc3ccccn3)c(=O)oc2c1 [Compound 3, Pyridin-2-ylmethyl-7-(diethylamino)-2-oxo-2H-chromene-3-carboxylate]",reactivity to radiation reduction,[1]; 60 Gy X-ray,more reactive
"CCN(CC)c1ccc2cc(C(=O)OCc3ccnc4ccccc34)c(=O)oc2c1 [Compound 4, Quinolin-4-ylmethyl-7-(diethylamino)-2-oxo-2H-chromene-3-carboxylate]",reactivity to radiation reduction,[1]; 60 Gy X-ray,more reactive
"CCN(CC)c1ccc2cc(C(=O)OCc3ccc4ccccc4n3)c(=O)oc2c1 [Compound 6, Quinolin-2-ylmethyl-7-(diethylamino)-2-oxo-2H-chromene-3-carboxylate]",reactivity to radiation reduction,[1]; 60 Gy X-ray,more reactive
"CCN(CC)c1ccc2cc(C(=O)OCc3cc[n+](C)cc3)c(=O)oc2c1 [Compound 7, (4-((7-(diethylamino)-2-oxo-2H-chromene-3-carbonyl)oxy)methyl)-1-methylpyridin-1-ium]",coumarin release efficiency,"[1]; 10 µM, 20 Gy + 10 mM HCO2Na",53.8%
same,coumarin release efficiency,"[1]; 10 µM, 20 Gy + 10 mM KNO3",0.0%
same,coumarin release efficiency,[1]; [11],27.6%
same,reduction yield on addition of HCOONa,"[1]; 10 mM HCOONa added, 10 µM in PB pH 7.4",approximately doubled
same,release efficiency in KNO3 solution relative to control,[1]; 10 µM in PB pH 7.4,significantly reduced
same,release efficiency (in words),[1]; 60 Gy X-ray,high release efficiencies
same,G-value (release of the reporter molecule),"[1]; X-ray dose gradient 0 to 60 Gy, UPLC",140 nM/Gy
same,reactivity to radiation reduction,[1]; 60 Gy X-ray,more reactive
"CCN(CC)c1ccc2cc(C(=O)OCc3cccc[n+]3C)c(=O)oc2c1 [Compound 9, (2-((7-(diethylamino)-2-oxo-2H-chromene-3-carbonyl)oxy)methyl)-1-methylpyridin-1-ium]",release efficiency (in words),[1]; 60 Gy X-ray,high release efficiencies
same,reactivity to radiation reduction,[1]; 60 Gy X-ray,more reactive
Cc1cc(=O)oc2cc(NC(=O)OCc3cc[n+](C)cc3)ccc12 [Compound 10],G (AMC release versus radiation dose),[2],145 nM/Gy
same,additional activation versus previously reported structures in competition,[3],20-40%
COc1ccc2c(c1)Oc1cc(NC(=O)OCc3cc[n+](C)cc3)ccc1C21OC(=O)c2ccccc21 (stereo not shown) [NAPC-MeRho],spontaneous release of MeRho,[4],no spontaneous release of MeRho
same,cell viability,[5],greater than 95%
same,spontaneous release of MeRho,"[6]; hypoxic conditions, 30 minutes, no radiation",no spontaneous release of MeRho
same,increase of fluorescence intensity,[6]; 4 Gy radiation,14.4 fold
same,increase of fluorescence intensity,[6]; 8 Gy radiation,27.9 fold
same,increase of fluorescence intensity,[6]; 16 Gy radiation,54.5 fold
same,fluorescence signal in tumor sections,[7]; 4 Gy X-ray 30 minutes post-injection,significantly increased
same,fluorescence signal in tumor sections,[7]; NAPC-MeRho only,limited fluorescence signal
same,stability to reducing agent VcNa,"[8]; 10 µM, 100 eq. VcNa, pH 7.4",highly stable
same,stability in cysteine and γ-glutathione solutions,[8]; compared with result in sodium ascorbate solution,the same
same,spontaneous release of MeRho,[9],no spontaneous release of MeRho
same,G-value for MeRho release,[10],140 nM/Gy
